melting point [°C]	Compound
153 to 154	CC(C)Oc1ccc(C(CC(N)=O)N2C(=O)c3ccccc3C2=O)cc1OC(C)C (stereo unspecified)
118 to 119	Oc1ccc(OCc2ccccc2)c2ccccc12
308 to 312	Cc1ccc2oc(C=Cc3ccc(C(=O)O)cc3)cc(=O)c2c1
217 to 218	CS(=O)(=O)Nc1cc2occc(=O)c2cc1Oc1ccccc1
82 to 84	CCOC(=O)c1c(-c2ccccc2)c2c3ccccc3ccn2c1C(C)C
201 to 203	NC(=O)c1cccc(Nc2ccncc2)c1
209 to 210	COC(=O)C1=C(C)Nc2ccnn2C1c1ccccc1C(F)(F)F (stereo unspecified)
275 to 276	O=c1[nH]c2ccc(Br)cc2c(-c2ccccc2)[n+]1[O-]
112 to 113	CN(C)Cc1cc(C(=O)c2ccc(F)cc2)cc(C(C)(C)C)c1O
155 to 156	COc1ccc(CC(=O)NCCc2ccc3[nH]cc(CC#N)c3c2)cc1
144 to 146	Cc1cc(NC(=O)c2ccccc2C)ccc1Br
203 to 205	CCNC(=O)c1nn(-c2ccc(Cl)cc2)c(=O)c2c(N)scc12
136 to 137	Cc1cccc(Cl)c1C(N)=NO
148 to 149	O=C(NCC1CCOCC1)Nc1ccc(C(F)(F)F)cc1
180 to 181	Cc1ncccc1NC(=NC#N)NC(NC(=O)Cc1ccc(Cl)cc1)C(C)(C)C (stereo unspecified)
270	NC(=O)c1cc([N+](=O)[O-])ccc1C=Cc1ccccc1
92 to 96	O=C(Nc1ccccc1)OCc1ccccc1
62 to 63	Brc1cccc(OCCOc2nccnc2N2CCNCC2)c1
252 to 254	N=C(NO)c1ccc(-c2cccc(-c3cn4cc(C(=N)NO)ccc4n3)c2)cc1
111 to 113	CCOC(=O)Cn1nnc(-c2cccc(OCc3ccc4ccccc4n3)c2)n1
234	N#Cc1ccc(C(=O)NCc2ccc(N3CC(C(=O)O)OC3=O)cc2)cc1 (stereo unspecified)
200 to 201	O=C(c1ccccc1)N1CCc2cc(S(=O)(=O)N3CCN(c4cccc(Cl)c4)CC3)ccc21
131 to 144	C#CCOC(=O)c1ccccc1C1=NC(=O)C(C)(C(C)C)N1 (stereo unspecified)
148 to 149	CCCCCCCNC(=O)N(C)c1cccc(-c2ccc(C=CC(=O)O)c(F)c2)c1
279 to 282	Cn1cc(C2=C(c3cn(C)c4cc(O)ccc34)C(=O)NC2=O)c2ccccc21
270	CNC1N=CN(c2c(Cl)cccc2Cl)C(=O)N1 (stereo unspecified)
86 to 88	O=C(O)CCCOc1cccc2c1Cc1sc(SCCC(c3ccccc3)c3ccccc3)nc1-2
172 to 182	Nc1sc(CC(=O)O)cc1C(=O)c1ccccc1Cl

The next lines start with the molecule.

Compound	melting point [°C]
N#CC1(C(O)(Cn2cncn2)c2ccccc2)CC1 (stereo unspecified)	103 to 105
CC(C)(CO)Oc1ccccc1	91 to 92
COc1ccc2cc(C(=O)CNC(=O)c3cn(Cc4ccccc4)c4ccccc34)ccc2c1	177 to 179
O=C1c2cc(OCc3ccccc3)ccc2OCC1Oc1ccccc1 (stereo unspecified)	100 to 102
CCOC(=O)C1=NN(c2ccc(Cl)cc2)C2(N3CCCC3)CCCC12 (stereo unspecified)	95 to 96
COc1cc([C@@H]2c3cc4c(cc3C=C[C@H]2C(=O)O)OCO4)cc(OC)c1OC (relative stereo)	177 to 180
NC(=O)CNc1c(F)cc([N+](=O)[O-])cc1F	160 to 162
CC(C)(C)OC(=O)N[C@@H]1C(=O)N2C(C(=O)OC(c3ccccc3)c3ccccc3)=C(/C=C3\CCN(CC4CC4)C3=O)CS[C@H]12	175 to 180
COc1cc([N+](=O)[O-])ccc1S(=O)(=O)n1c(=O)n(C2CCCCC2)c2cc(Cl)ccc21	185
CS(=O)(=O)c1ccc(-c2c(F)c(F)c(F)c(F)c2-c2ccc(F)cc2)cc1	134 to 135
O=c1[nH]c2ccc(Cl)cc2n1CCCl	164
C#CCn1cc(CO)c([N+](=O)[O-])c1	60
CN(C)C1CCc2[nH]c3ccc(CO)cc3c2C1 (stereo unspecified)	195 to 197
CCOC(=O)NC(C(=O)OC)=C1CN=C(c2ccccc2F)c2cc(Cl)ccc2N1	188 to 191
COc1cc2c(cc1OC)C(CNC(=O)N(C)O)CC2 (stereo unspecified)	120 to 121
COc1cccc(OCC2CC2)c1-c1cc(C(=O)C2(C(=O)O)C3CC4CC(C3)CC2C4)nn1-c1ccnc2cc(Cl)ccc12 (stereo unspecified)	200
Cc1n[nH]c2cc(-c3nn(C(C)c4oc5ccc(F)cc5c(=O)c4-c4ccccc4)c4ncnc(N)c34)ccc12 (stereo unspecified)	253 to 255
Cc1ccc2nc(-c3ccc(Cl)cc3)c(CN3CCCC3=O)n2c1	186 to 188
CCN(CC)c1nsc(NC(=O)NC)c1C(N)=O	195 to 197
CCOC(=O)C=Cc1cc(-n2nc3ccc(Cl)cn3c2=O)c(F)cc1Cl	162 to 165
COc1ccc(Cc2nc3n(-c4c(Cl)cc(Cl)cc4Cl)[nH]c(C(C)C)c-3c(=O)n2)cc1	183 to 185
C#CCN(C)c1nc(C(=O)N(C)C)cs1	99 to 100

Compound	melting point [°C]
CCCCCCCCOc1cc(-c2cccc(Cl)c2)c(OCC(=O)O)c(-c2cccc(Cl)c2)c1	113 to 116
CCOCCOc1cc(N2C(=O)C3=C(CCCC3)C2=O)c(F)cc1C#N	90
COC(=O)C1=C(C)NC(CC(=O)N2CCN(C3Cc4ccccc4C3)CC2)=C(C(=O)OC)C1c1c(Cl)cccc1Cl (stereo unspecified)	190 to 200
NNc1ccc(Cl)c(Cl)c1Cl	138 to 140
COC1=CC(=O)C=C(Br)C1=O	157 to 158
Cc1c([N+](=O)[O-])cnc(Oc2ccc(Cl)c(C(F)(F)F)c2)c1Br	73 to 74
CC(C)(C)OC(=O)NNC(=N)C(Cl)(Cl)Cl	150
O=c1[nH]c2ccsc2c(=O)n1CCN1CCN(c2ccccc2Cl)CC1	193 to 196
CNC(=O)C1CN(CC(=O)Nc2c(C)cc(C)cc2C)CCN1CCCC(c1ccc(F)cc1)c1ccc(F)cc1 (stereo unspecified)	82.3
OC(CCl)(CC(Cl)(Cl)Cl)c1cc(Cl)cc(Cl)c1 (stereo unspecified)	69 to 70.5
CON=C(C(=O)OC)c1ccccc1/C=C(\Cl)C(=O)O	107 to 109
CCOC(=O)C(C=O)Cc1ccc(OC)nc1 (stereo unspecified)	91.5 to 94
COC(=O)C1=C(O)c2c(c3cc(OC)ccc3n2C)S(=O)(=O)N1C	200 to 201
Fc1ccc(C(=S)N2CCCC(c3ccc(Cl)c(Cl)c3)=N2)cc1F	135 to 136
CCC1(C)CC(=O)C2(C)CCC3c4ccc(OC)cc4CCC3C12 (stereo unspecified)	104 to 107
CCCCCCCCCCCCCCCC(=O)N[C@@H](CSC[C@H](O)[C@H](O)CO)C(=O)O	76 to 76.5
CONC(=O)NC1CCCc2sccc21 (stereo unspecified)	138
COCCOc1cc2ncnc(Cl)c2cc1OCCOC	108 to 109
COC(=O)c1cc2cc([N+](=O)[O-])cc(O)c2o1	252 to 253
COC(=O)c1ccc(OCCNC(=O)C2Cc3ccccc3N2S(=O)(=O)c2ccc(-c3cc(C(F)(F)F)ccc3Cl)cc2)cc1F (stereo unspecified)	84 to 85
O=C(O)c1ccc2c(c1)C(=O)N(c1ccc(C3(c4ccc(N5C(=O)c6ccc(C(=O)O)cc6C5=O)cc4)c4ccccc4-c4ccccc43)cc1)C2=O	328 to 331

Reference: a melting point compilation (Tetko et al.; mined from patent text by program, amines drawn as free bases though some values may be those of a salt)
